Measurements as given in patent publication US12006542B2, “Force-modulated hybridization for visualizing nucleic acid length and function” (University of Houston System, priority 2017, dated 2024).

Key:
[1] = system: DNA duplex, enzyme-binding segment for DpnII; assay: Force-modulated drug-DNA binding determination with DNA-cleaving enzyme DpnII (visual particle immobilization); conditions: DpnII present; after ~1 pN force
Text: (§1) To determine the exact binding site of drugs on nucleic acids, a derived scheme contains a magnetically labeled DNA and its complementary strand, in the presence of the drug to be analyzed and a DNA-cleaving enzyme. The binding site of the drug can be precisely determined by force modulation following surface immobilization.
(§2) FIG. 1D can be utilized to illustrate a system 100 for measuring drug-DNA binding. A magnetically labeled DNA strand 102 is hybridized with its complementary strand 104, in the presence of a drug molecule 106 and a DNA-cleaving enzyme 107. If the drug binds with the DNA specifically at the location of the enzyme, the enzyme will not be able to cleave the duplex. Consequently, the magnetic particles will be able to be immobilized on the surface via the biotin 105 on complementary strand 104, showing yellowish color in image 108(a) and being assigned as “1”. […] Thus, the magnetic particles will not be able to bind with the surface because of the absence of a functional group (such as biotin 105 shown in FIG. 1D) to interact with the matching functional group on the surface, showing as clear and being assigned as “0” in image 108(b).
(§3) The derived scheme presented in FIG. 1D was used to precisely determine the binding sites of drug molecules. […]

[2] = system: DNA duplex, enzyme-binding segment for EcoRI; assay: Force-modulated drug-DNA binding determination with DNA-cleaving enzyme EcoRI (visual particle immobilization); conditions: EcoRI present; after ~1 pN force
Text: as §1, §2, §3

DNA = assay: Laser transmission quantification of immobilized particles at different drug concentrations; assay type: binding; conditions: fitting of transmission profile vs drug concentration
Text: The detection was achieved by using a photodetector (DET100A, Thorlabs) coupled with a voltmeter. […] Fitting of the profile yielded a binding constant of 9±2×10^4 M^−1, consistent with the results using a sensitive atomic magnetometer.

[3] = system: DNA duplex, EcoRI binding site; assay: Multiplexed sample wells, ultrasound force through a piezo plate, EcoRI; conditions: 100 μM drug, lane 4
Protocol: (§4) A shown in FIG. 7A, a new system was designed consisting of a puncher, an incubator, and a displayer. After incubating the sample, the puncher will be used to break the bottom of the incubator so the sample will be transferred to the corresponding wells on the displayer. The bottom of the displayer was functionalized, for example with streptavidin, so that magnetic particles will be able to be immobilized through a labeled DNA duplex, for example with biotin. A mechanical force is then applied on the displayer followed by final inspection and measurement.
(§5) The samples within each lane were under identical conditions. 1: DNA duplex with 100 μM daunorubicin and DpnII; 2: DNA duplex with 100 μM netropsin and DpnII; 3: DNA duplex; 4: DNA duplex incubated with 100 μM daunomycin and EcoRI; 5: DNA duplex with 100 μM netropsin and ECoRI. After applying ultrasound through a piezo plate, only the particles in lanes 2 and […] were removed, indicating weak binding between netropsin and CTAG (lane 2), and between daunomycin and the EcoRI binding site (lane 4).

[4] = system: segment of the DNA duplex specified by DpnII; assay: Dissociation force of drug-DNA binding, segment chosen by DpnII; conditions: for order of binding strength (dissociation force): DNA segment chosen by addition of DpnII, FIG. 5C red section
Text: (§6) The dissociation force can be further used to quantitatively distinguish the binding strength of different drug molecules at each and every specific nucleotide sequence. […] This segment is specifically chosen because of the addition of enzyme DpnII.

[5] = relative to doxorubicin; cited from earlier work
[6] = system: segment of the DNA duplex specified by EcoRI; assay: Dissociation force of drug-DNA binding, segment specified by EcoRI; conditions: FIG. 5C blue section
Text: as §6

DNA duplex, CTAG (DpnII) = assay: Multiplexed sample wells, ultrasound force through a piezo plate, DpnII; assay type: binding; conditions: 100 μM drug, lane 2
Protocol: as §4, §5

SMILES	blocking of DpnII binding site on DNA duplex (particle immobilization) [1]	blocking of EcoRI on DNA duplex (particle immobilization) [2]	binding constant (DNA)	binding with the EcoRI binding site after ultrasound [3]	order of binding strength (dissociation force) [4]	toxicity in chemotherapy [5]	sequence selectivity of DNA binding ([4]; comparison of DpnII and EcoRI segments)	rank of binding strength (dissociation force) [6]	binding with CTAG after ultrasound (DNA duplex, CTAG (DpnII))
COc1cccc2c1C(=O)c1c(O)c3c(c(O)c1C2=O)C[C@@](O)(C(C)=O)C[C@@H]3O[C@H]1C[C@H](N)[C@H](O)[C@H](C)O1 [daunomycin]	blocked the binding site of DpnII	could not	9±2×10^4 M^−1	weak binding	daunomycin, doxorubicin > epirubicin >> daunomycin >> netropsin	–	–	–	–
COc1cccc2c1C(=O)c1c(O)c3c(c(O)c1C2=O)C[C@@](O)(C(=O)CO)C[C@@H]3O[C@H]1C[C@H](N)[C@H](O)[C@H](C)O1 [doxorubicin]	–	–	–	–	daunomycin, doxorubicin > epirubicin >> daunomycin >> netropsin	–	–	–	–
COc1cccc2c1C(=O)c1c(O)c3c(c(O)c1C2=O)C[C@@](O)(C(=O)CO)C[C@@H]3O[C@H]1C[C@H](N)[C@@H](O)[C@H](C)O1 [epirubicin]	–	–	–	–	daunomycin, doxorubicin > epirubicin >> daunomycin >> netropsin	less toxic	more sequence-selective than doxorubicin	–	–
Cn1cc(NC(=O)c2cc(NC(=O)CN=C(N)N)cn2C)cc1C(=O)NCCC(=N)N [netropsin]	does not interfere with the binding of DpnII	able to block EcoRI	–	–	daunomycin, doxorubicin > epirubicin >> daunomycin >> netropsin	–	–	second strongest	weak binding
